{
  "source": "patent US20070037887A1",
  "about": "“Blockade of mtor to prevent a hormonal adaptive response” (University of Virginia Patent Foundation, priority 2003, published 2007)",
  "key": {"[1]": {"conditions": "doses needed to inhibit tumor growth; cited from earlier work"}, "LTED cells": {"tested_on": "LTED cells", "assay": "[3H] thymidine incorporation into DNA, LTED cells", "format": "cell-based, human", "conditions": "FTS 75 μM, 18 hours", "method": "FIGS. 5A & 5B represent the effect of FTS on DNA synthesis in MCF-7 (FIG. 5A) and LTED (FIG. 5B) cells. One hundred thousand cells were plated into each well of 24-well plates. Two days later, the cells were re-fed with IMEM containing 5% DCC-FBS. After another two days, cells were treated in quadruplicate with the compounds indicated for 18 hours. [^3H] thymidine (1 μCi/well) was added during the last 2 h of incubation. [^3H] thymidine incorporated into DNA was normalized by protein content.\nThe inhibitory effect of FTS on cell growth may be the result of inhibition of cellular proliferation, induction of apoptosis, or both. To determine the mechanism by which FTS inhibits cell growth, FTS's effect on DNA synthesis and apoptosis was investigated. […] Estradiol (10^−10 M) increased [^3H] thymidine incorporation by 2.6 fold compared to the control level in MCF-7 cells."}, "mTOR-mLST8": {"tested_on": "mTOR-mLST8", "assay": "Coimmunoprecipitation of mLST8 with mTOR, compound added to cell extracts", "format": "binding", "conditions": "only at the highest concentrations investigated", "method": "FIGS. 13A & 13B represent data showing FTS promotes raptor dissociation and inhibits mTOR activity in cell extracts. 293T cells were transfected with pcDNA3 alone (Vec.) or with a combination of pcDNA3AU1-mTOR, pcDNA33HA-Raptor, and pcDNA33HA-mLST8. Extracts of the cells were incubated with increasing concentrations of FTS before AU1-mTOR was immunoprecipated. Samples of the immune complexes were incubated with [γ-^32P]ATP and recombinant [His^6]PHAS-I, then subjected to SDS-PAGE and transferred to an immobilon membrane. After obtaining a phosphorimage of the membrane to detect ^32P-PHAS-I, the membrane was immunoblotted with PThr^36/45 antibodies. […]\nFIGS. 14A & 14B represent data showing the relative effects of increasing concentrations of FTS and GTS on mTOR activity and the association of mTOR and raptor. Samples of extracts from 293T cells overexpressing AU1-mTOR, HA-raptor, and HA-mLST8 were incubated for 1 h with increasing concentrations of FTS (●, ▴, ▪) or GTS (∘, Δ, □) before immunoprecipitations were conducted with anti-AU1 antibodies. mTOR kinase activity (●, ∘) was determined by measuring ^32P incorporation into [His^6]PHAS-I in immune complex kinases assays performed with [γ-^32P]ATP (see FIG. 14A). The relative amounts of HA-raptor (▴, Δ) and HA-mLST8 (▪, □) that coimmunoprecipitated with AU1-mTOR were determined after immunoblotting with anti-HA antibodies (see FIG. 14B). […]"}},
  "data": [
    {"compound": "CC(C)=CCC/C(C)=C/CC/C(C)=C/CSc1ccccc1C(=O)O", "note": "[FTS, farnesylthiosalicylic acid]", "values": [
      {"measurement": "animal weight", "setting": "[1]", "value": "does not cause a reduction of animal weight"},
      {"measurement": "toxicity", "setting": "[1]", "value": "non-toxic"},
      {"measurement": "[3H] thymidine incorporated into DNA", "setting": "LTED cells", "value": "significantly reduced"},
      {"measurement": "amounts of transfected and endogenous mLST8 that coimmunoprecipitated with mTOR", "setting": "mTOR-mLST8", "value": "modestly decreased"}
    ]}
  ]
}
